1 compound from BindingDB's records for patent US11649233 (Nanjing Transthera Biosciences, 2023) can be followed below.

The test addresses T1, Amine oxidase [copper-containing] 3 (Homo sapiens, UniProt Q16853).
T1 sequence (Q16853 whole entry): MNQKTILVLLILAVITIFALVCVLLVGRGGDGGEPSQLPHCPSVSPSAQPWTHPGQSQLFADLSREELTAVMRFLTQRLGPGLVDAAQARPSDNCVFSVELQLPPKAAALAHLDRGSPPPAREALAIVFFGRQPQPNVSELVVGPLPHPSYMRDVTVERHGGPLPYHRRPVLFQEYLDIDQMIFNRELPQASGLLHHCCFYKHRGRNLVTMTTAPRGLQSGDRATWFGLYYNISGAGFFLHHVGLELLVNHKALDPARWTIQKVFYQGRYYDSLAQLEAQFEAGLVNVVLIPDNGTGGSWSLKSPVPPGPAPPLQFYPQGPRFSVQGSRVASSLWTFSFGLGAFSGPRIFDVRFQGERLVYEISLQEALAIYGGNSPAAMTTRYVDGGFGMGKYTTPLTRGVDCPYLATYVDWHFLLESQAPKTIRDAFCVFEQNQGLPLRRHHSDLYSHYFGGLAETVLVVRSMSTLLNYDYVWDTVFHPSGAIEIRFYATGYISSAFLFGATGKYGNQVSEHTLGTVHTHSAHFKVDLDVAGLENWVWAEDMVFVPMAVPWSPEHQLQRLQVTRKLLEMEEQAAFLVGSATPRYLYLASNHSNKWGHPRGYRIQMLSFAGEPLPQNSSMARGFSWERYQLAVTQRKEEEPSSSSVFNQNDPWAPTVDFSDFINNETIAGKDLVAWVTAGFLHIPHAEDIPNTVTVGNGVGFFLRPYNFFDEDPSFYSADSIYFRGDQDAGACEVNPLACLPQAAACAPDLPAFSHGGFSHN
Kind of test: Inhibition Activity of the Compound on rhVAP-1 and MAO-A/B. Here is the method: Test substances: the compounds of the present invention shown in Table 1 and prepared according to the methods of the examples 1. Inhibition Activity of the Compounds on the rhVAP-1 Enzyme (1) Instrument, consumable and reagent Multifunctional microplate reader (MD, FlexStation 3), black bottom-impermeable 96-well plate (Corning), rhVAP-1 (PeproTech) (2) Preparation of Compound Concentration Gradient Solutions An appropriate amount of the test compound was dissolved in DMSO to 10 mM and stored. Before the experiment, an appropriate amount of 10 mM test compound mother liquor was diluted to 10 μM solution with DMSO. Then 3-fold gradient dilution with DMSO was performed, and 10 concentration gradients were formed.(3) Preparation of Enzyme Solutions. An appropriate amount of protein diluent was added to the rhVAP-1 powder to obtain 1 mg/mL of the mother liquor for storage. […] Then 50 μL of 2×substrate mixed solution was added to each well, and immediately the detection was performed with the microplate reader in a condition of an exciting light at 565 nm, an emitting light at 590 nm, the fluorescence intensity for detecting each well of 5 minutes/run, and a total detection time of 25 minutes.

Each structure is given as a SMILES string. pIC50: −log10 of the molar value.

As usually defined, the pIC50 is the IC50 on a negative log10 scale, so that one unit is a factor of ten. A high value points to a low IC50. On to `CC(C)N1CCc2cc(OC/C(=C/F)CN)ccc2C1=O` [US11649233, Compound 4], for which the pIC50 is 7.23.
